ChEMBL document CHEMBL3045342, “Quantitative relationship between insecticidal activity and Ca2+ pump stimulation by flubendiamide and its related compounds” (J Pestic Sci, 2009)
In brackets after ≈: the same amount, converted by molar mass. Activity calls are given as the source filed them. The rule behind the calls is not given here.

How the values were obtained:
[1] = system: Spodoptera litura; experiment: Insecticidal activity against Spodoptera litura cabbage leaf disk after 4 to 7 days by leaf dipping method; assay type: functional; conditions: foliar
[2] = biological target: Ryanodien receptor (Spodoptera exigua) (UniProt H9CNL0); experiment: Activation of ryanodine receptor in sixth-instar larvae of Spodoptera litura muscle membrane assessed as induction of Ca2+ pump at 0.4 uM after 30 min relative to control
[3] = biological target: Ryanodien receptor (Spodoptera exigua) (UniProt H9CNL0); experiment: Activation of ryanodine receptor in sixth-instar larvae of Spodoptera litura muscle membrane assessed as induction of Ca2+ pump at 2 uM after 30 min relative to control
[4] = biological target: Ryanodien receptor (Spodoptera exigua) (UniProt H9CNL0); experiment: Activation of ryanodine receptor in sixth-instar larvae of Spodoptera litura muscle membrane assessed as induction of Ca2+ pump at 0.1 uM after 30 min relative to control
[5] = biological target: Ryanodien receptor (Spodoptera exigua) (UniProt H9CNL0); experiment: Activation of ryanodine receptor in sixth-instar larvae of Spodoptera litura muscle membrane assessed as induction of Ca2+ pump at 1 uM after 30 min relative to control
[6] = biological target: Ryanodien receptor (Spodoptera exigua) (UniProt H9CNL0); experiment: Activation of ryanodine receptor in sixth-instar larvae of Spodoptera litura muscle membrane assessed as induction of Ca2+ pump at 10 uM after 30 min relative to control
[7] = biological target: Ryanodien receptor (Spodoptera exigua) (UniProt H9CNL0); experiment: Activation of ryanodine receptor in sixth-instar larvae of Spodoptera litura muscle membrane assessed as induction of Ca2+ pump at 0.1 uM after 30 min in presence of ryanodine
[8] = biological target: Ryanodien receptor (Spodoptera exigua) (UniProt H9CNL0); experiment: Activation of ryanodine receptor in sixth-instar larvae of Spodoptera litura muscle membrane assessed as induction of Ca2+ pump at 1 to 100 uM after 30 min

| Structure (SMILES) | LC50 [1] | further results |
| --- | --- | --- |
| CSCC(C)(C)NC(=O)c1c(C(=O)Nc2ccc(C(F)(C(F)(F)F)C(F)(F)F)cc2C)cc(Cl)c(Cl)c1I | > 10 µg/mL | – |
| CNc1ccc2oc(C[C@H]3O[C@@]4(CC[C@H]3C)O[C@H]([C@H](C)C(=O)c3ccc[nH]3)[C@H](C)C[C@H]4C)nc2c1C(=O)O | – | Activity [2]: 158%; Activity [3]: 358% |
| CSCC(C)(C)NC(=O)c1c(I)cccc1C(=O)Nc1ccc(C(F)(C(F)(F)F)C(F)(F)F)cc1C | 0.03 µg/mL (≈ 0.0461 µM) | – |
| Cc1cc(OC(F)F)ccc1NC(=O)c1cccc(I)c1C(=O)NC(C)C | 1 µg/mL (≈ 2.05 µM) | – |
| Cc1cc(C(F)(C(F)(F)F)C(F)(F)F)ccc1NC(=O)c1cccc(I)c1C(=O)NC(C)C | 0.1 µg/mL (≈ 0.169 µM) | – |
| Cc1cc(OC(F)(F)F)ccc1NC(=O)c1cccc(I)c1C(=O)NC(C)C | 1 µg/mL (≈ 1.98 µM) | – |
| Cc1cc(Cl)ccc1NC(=O)c1ccccc1C(=O)NC(C)C | 10 µg/mL (≈ 30.2 µM) | – |
| C/C=C(/C)C(=O)O[C@H]1C(C)=C2[C@H]([C@@H]1OC(=O)CCCCCCC)[C@@](C)(OC(C)=O)C[C@H](OC(=O)CCC)[C@@]1(O)[C@H]2OC(=O)[C@@]1(C)O | – | Activity [4]: 67.8%; Activity [5]: 31.7%; Activity [6]: 31% |
| Cc1cc(C(F)(C(F)(F)F)C(F)(F)F)ccc1NC(=O)c1cccc(I)c1C(=O)NC(C)(C)CS(C)(=O)=O [FLUBENDIAMIDE] | 0.03 µg/mL (≈ 0.044 µM) | Activity [7]: inactive |
| CC(C)[C@@]1(O)[C@@H](OC(=O)c2cc[nH]c2)[C@@]2(O)[C@]3(C)C[C@@]4(O)O[C@@]5([C@H](O)[C@@H](C)CC[C@]35O)[C@@]2(O)[C@@]41C | – | Activity [8]: Active |
| Cc1cc(Cl)ccc1NC(=O)c1cccc(Br)c1C(=O)NC(C)C | 10 µg/mL (≈ 24.4 µM) | – |
| Cc1cc(C(F)(F)C(F)(F)F)ccc1NC(=O)c1cccc(I)c1C(=O)NC(C)C | 0.3 µg/mL (≈ 0.555 µM) | – |
